Reference: the NIST ThermoML archive (doi:10.1016/j.fluid.2004.12.004)
Numbers after ± are expanded uncertainties.

settings: 298.15 K; 101.33 kPa; Liquid; Vibrating tube method

Row | mass density [kg/m3] | SMILES
1 | 805.8 ± 0.2 | CCCCO [butan-1-ol]
2 | 894.4 ± 0.6 | CCOC(C)=O [ethyl acetate]
3 | 943.81 ± 0.2 | CN(C)C=O [dimethylformamide]
4 | 764.96 ± 0.13 | CC1CCCCC1 [methylcyclohexane]
5 | 1073.3 ± 0.42 | CC(=O)Oc1ccccc1 [phenyl ethanoate]

Row | SMILES | mass density [kg/m3]
6 | COC(=O)c1ccccc1C(=O)OC [dimethyl 1,2-benzenedicarboxylate] | 1186.9 ± 0.2
